Ends that are not written are not given here.
Key:
U‐87MG = test: Cell death, PI staining and FACS; type: cell-based; settings: anti‐TfR antibodies (1 : 250) 2 h, then peptide 5 μM 3 h, n = 2 (Fig. 3C)
Description: (§1) Leukemia cells, U‐937, MEC‐1 cells (4 × 10^5 or 8 × 10^5 cells/sample, respectively), as well as other leukemia or suspension cell lines, were incubated in 200 μL serum‐free medium with various concentrations of the peptide for 90 min at 23–25 °C, collected by centrifugation (500 g, 5 min), washed with PBS, and analyzed for cell death. Adherent cells (6 × 10^5 mL^−1 at 70–80% confluence) were incubated with the peptide of interest in 500 μL serum‐free recommended culture medium for 3–6 h at 37 °C and 5% CO2. The cells were then trypsinized, centrifuged (1500 g, 5 min), washed with PBS, and analyzed for the desired activity. Following peptide treatment, cells were subjected to cell death analysis. […] PRO software (BD Biosciences, San Jose, CA, USA).
(§2) For each line, cells were incubated with different peptide concentrations, and cell death was determined by PI staining and FACS analysis (Figs 1, 2, 3).

[1] = tested on: A549 cells (HK‐I in cytosolic fraction); test: Mitochondria‐bound HK detachment, cell fractionation and immunoblotting; type: cell-based, human; settings: A549, peptide 3, 5, 10 μM, 3 h; digitonin […]; immunoblot (Fig. 4E)
Description: Peptide‐induced HK detachment from mitochondria to the cytosol was also analyzed by immunoblotting. […] Samples were centrifuged at 12 000 g at 4 °C for 10 min, and the obtained supernatants (cytosolic fraction) and pellets (mitochondria) were analyzed by immunoblotting using anti‐HK‐I, anti‐VDAC1, and anti‐GAPDH antibodies, and then with secondary HRP‐conjugated antibodies.

HeLa cells = test: Cellular ATP levels, luciferase‐based assay (CellTiter‐Glo); type: cell-based, human; settings: 3 h, percentage of control, mean ± SE (n = 3) (Fig. 4F)
Description: Cellular ATP levels were estimated using a luciferase‐based assay (CellTiter‐Glo; Promega). […] ATP levels were assayed according to the manufacturer's protocol, and luminescence was recorded using an Infinite M1000 plate reader (Tecan, Männedorf, Switzerland).

A549 cells = test: Apoptosis, acridine orange/ethidium bromide staining; type: cell-based, human; settings: A549, 3 h; quantitation, mean ± SE (n = 3) (Fig. 5E)
Description: For PI and annexin V–FITC staining, A549 or MDA‐MB‐231 cells, untreated or treated with VDAC1‐based peptides, were collected (1500 g for 5 min), washed, and resuspended in 200 μL binding buffer (10 mM HEPES/NaOH (pH 7.4), 140 mM NaCl, and 2.5 mM CaCl2). Annexin V–FITC staining was performed according to the recommended protocol. Cells were then washed once with binding buffer and resuspended in 200 μL binding buffer, to which PI was added immediately before flow cytometric analysis. At least 10 000 events were collected, recorded on a dot plot, and analyzed by flow cytometer. Acridine orange/ethidium bromide staining was carried as described previously (Zaid et al., 2005), with cells visualized by fluorescence microscopy (Olympus LX2‐KSP, Tokyo, Japan), and images were captured with a CCD camera. About 200 cells were counted for each experiment.

HK‐I = molecular target: T1, HK‐I (Homo sapiens, UniProt P19367); test: HK activity assay with purified recombinant HK‐I; type: biochemical; settings: HK‐I 13 µg/ml pre‐incubated with peptide; 1 mM ATP, G6PDH‐coupled, absorbance at 340 nm (Fig. S3B)
T1 construct: His; made in house; host or cells: Escherichia coli BL21
T1 sequence (P19367 1-917): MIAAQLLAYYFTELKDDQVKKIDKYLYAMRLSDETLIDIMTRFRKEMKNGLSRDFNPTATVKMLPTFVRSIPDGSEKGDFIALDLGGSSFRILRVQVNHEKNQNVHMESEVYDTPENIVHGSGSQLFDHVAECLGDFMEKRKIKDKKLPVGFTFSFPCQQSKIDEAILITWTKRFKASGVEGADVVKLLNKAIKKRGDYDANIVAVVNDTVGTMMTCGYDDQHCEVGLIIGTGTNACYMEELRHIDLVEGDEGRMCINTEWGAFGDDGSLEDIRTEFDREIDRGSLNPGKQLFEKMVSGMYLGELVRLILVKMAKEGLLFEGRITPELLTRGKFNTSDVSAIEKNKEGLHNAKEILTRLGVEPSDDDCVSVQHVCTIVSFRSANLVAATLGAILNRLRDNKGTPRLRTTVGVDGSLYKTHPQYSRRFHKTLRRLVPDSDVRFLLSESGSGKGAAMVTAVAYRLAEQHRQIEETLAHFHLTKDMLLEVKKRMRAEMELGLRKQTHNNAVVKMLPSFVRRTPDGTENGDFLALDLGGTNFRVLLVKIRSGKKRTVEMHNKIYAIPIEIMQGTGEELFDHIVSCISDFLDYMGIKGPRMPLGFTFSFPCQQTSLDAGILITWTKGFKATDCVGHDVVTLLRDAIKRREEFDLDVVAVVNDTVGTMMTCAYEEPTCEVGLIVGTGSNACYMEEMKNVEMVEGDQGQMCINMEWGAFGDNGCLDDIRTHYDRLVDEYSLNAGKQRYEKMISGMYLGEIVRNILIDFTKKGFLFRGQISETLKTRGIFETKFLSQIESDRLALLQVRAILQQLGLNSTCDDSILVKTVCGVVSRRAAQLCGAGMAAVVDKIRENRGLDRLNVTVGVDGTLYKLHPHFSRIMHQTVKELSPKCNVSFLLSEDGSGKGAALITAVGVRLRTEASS
Description: Human HK‐I and HK‐II were cloned into plasmid pET‐His DNA and expressed in Escherichia coli BL21 upon IPTG induction. HK was purified from lysed cells using a HiTrap nickel column (GE Healthcare). Following dialysis, the imidazole‐eluted protein was further purified using a Blue HiTrap column (GE Healthcare). HK was eluted using 10 mM glucose, 20 mM Tris/HCl (pH 8.5), 20% glycerol, and 1.5 mM glucose‐6‐phosphate. Fractions were analyzed by SDS/PAGE and tested for HK activity. The purified active fractions were combined and stored in aliquots at −80 °C.
Change in absorbance at 340 nm (NADH production) was spectrophotometrically measured following addition of 1 mM ATP and 0.05 unit·mL^−1 glucose‐6‐phosphate dehydrogenase.
Purified HK-I (13 µg/ml) was pre-incubated with the indicated concentrations of Tf-D-LP4 (●) or R-Tf-D-LP4 (○) and assayed for HK activity as described in Materials and Methods. Change in absorbance at 340 nm (NADH production) was spectrophotometrically measured following addition of 1 mM ATP, and 0.05 unit/ml glucose-6-phosphate dehydrogenase. C. Tf-D-LP4 and R-Tf-D-LP4 solubility. The peptides were dissolved to a final concentration of 5 mM in 5% DMSO and diluted to 1.1 mM in HBSS. Peptide absorbance in the supernatant was measured at 280 nm following centrifugation at 12,000g before and after 75 min incubation at 24 °C. […] Cell death was analyzed using PI and FACS analysis. […]

PWR‐1E = test: Cell death, PI staining and FACS; type: cell-based; settings: 6 h, PI/FACS (Fig. 2G)
Description: as §1, §2

T‐Rex‐293 = test: Cell death, PI staining and FACS; type: cell-based, human
Description: as §1, §2

PANC1 = test: Cell death, PI staining and FACS; type: cell-based; settings: PANC1 (Group 3, Fig. 1H); 6 h; about 10% in the absence of peptides
Description: as §1, §2

[2] = molecular target: T2, Human hexokinase II (HK‐II), recombinant (human, UniProt P52789 1-917, fluorescently labeled using a NanoTemper BLUE protein‐labeling kit (in the MST)); test: MST
T2 chain: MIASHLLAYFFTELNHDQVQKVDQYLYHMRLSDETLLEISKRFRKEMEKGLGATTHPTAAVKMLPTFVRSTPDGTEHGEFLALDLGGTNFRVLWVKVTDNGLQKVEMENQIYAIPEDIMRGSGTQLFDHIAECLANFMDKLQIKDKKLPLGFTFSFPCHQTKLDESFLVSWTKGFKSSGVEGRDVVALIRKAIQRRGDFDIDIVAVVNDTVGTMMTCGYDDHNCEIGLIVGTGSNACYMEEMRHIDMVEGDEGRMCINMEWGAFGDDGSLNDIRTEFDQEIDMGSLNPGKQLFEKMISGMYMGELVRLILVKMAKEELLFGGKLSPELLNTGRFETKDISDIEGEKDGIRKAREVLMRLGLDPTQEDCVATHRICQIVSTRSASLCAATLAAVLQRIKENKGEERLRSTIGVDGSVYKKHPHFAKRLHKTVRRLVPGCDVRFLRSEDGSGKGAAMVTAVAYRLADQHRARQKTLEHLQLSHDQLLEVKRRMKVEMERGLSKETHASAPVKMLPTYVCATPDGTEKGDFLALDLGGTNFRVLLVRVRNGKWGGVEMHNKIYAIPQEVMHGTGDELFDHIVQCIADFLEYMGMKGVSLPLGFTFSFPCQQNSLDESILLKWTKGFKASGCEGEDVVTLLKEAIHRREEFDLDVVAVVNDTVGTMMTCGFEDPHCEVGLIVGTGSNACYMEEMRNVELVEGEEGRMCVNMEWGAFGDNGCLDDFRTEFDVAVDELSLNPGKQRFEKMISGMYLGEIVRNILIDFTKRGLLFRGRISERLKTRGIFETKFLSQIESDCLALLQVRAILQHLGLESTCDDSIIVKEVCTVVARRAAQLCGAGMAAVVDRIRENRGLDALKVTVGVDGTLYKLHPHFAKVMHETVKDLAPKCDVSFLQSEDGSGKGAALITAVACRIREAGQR

[3] = molecular target: T3, Human hexokinase I (HK‐I), recombinant (human, UniProt P19367 1-917, fluorescently labeled using a NanoTemper BLUE protein‐labeling kit (in the MST)); test: MST; fluorescently labeled HK‐I (830 nM) or HK‐II (100 nM) incubated 20 min with peptide (1–100 μM) in PBS; NanoTemper Monolith‐NT115, 40% LED, 40% IR laser power; settings: both partners purified
T3 construct: hexokinase I (HK‐I), human, cloned into plasmid pET‐His; Also used for the functional rows, where HK‐I was endogenous in A549 or HeLa cells or was HK‐I‐GFP (pEGFP‐HK‐I) in HeLa cells; source: E. coli BL21, IPTG induction, purified (HiTrap nickel column, Blue HiTrap column)
T3 sequence (looked up): T1 sequence (P19367 1-917)

[4] = molecular target: T4, Human hexokinase II (HK‐II), recombinant (human, UniProt P52789 1-917, fluorescently labeled using a NanoTemper BLUE protein‐labeling kit (in the MST)); test: as above; settings: both partners purified
T4 construct: hexokinase II (HK‐II), human, cloned into plasmid pET‐His; source: E. coli BL21, IPTG induction, purified (HiTrap nickel column, Blue HiTrap column)
T4 sequence (looked up): T2 chain

CC[C@H](C)[C@H](NC(=O)[C@H](C)NC(=O)[C@@H](N)Cc1c[nH]cn1)C(=O)N[C@@H](Cc1ccc(O)cc1)C(=O)N1CCC[C@H]1C(=O)N[C@@H](CCCNC(=N)N)C(=O)N[C@@H](Cc1c[nH]cn1)C(=O)N[C@H](CO)C(=O)N[C@H](Cc1c[nH]c2ccccc12)C(=O)N[C@@H](C(=O)N[C@H](Cc1c[nH]c2ccccc12)C(=O)N[C@H](CCC(=O)O)C(=O)N[C@H](CCCCN)C(=O)N[C@H](CCCCN)C(=O)N[C@H](CC(C)C)C(=O)N[C@H](CCC(=O)O)C(=O)N[C@@H](C(=O)N[C@H](C)C(=O)N[C@@H](C(=O)N[C@H](CC(N)=O)C(=O)N[C@H](CC(C)C)C(=O)N[C@H](C)C(=O)N[C@H](Cc1c[nH]c2ccccc12)C(=O)N[C@@H](C(=O)N[C@H](C)C(=O)NCC(=O)N[C@H](CC(N)=O)C(=O)N[C@H](CO)C(=O)N[C@H](CC(N)=O)C(=O)N[C@H](CCCCN)C(=O)N[C@H](Cc1c[nH]c2ccccc12)C(=O)N[C@@H](C(=O)N[C@H](Cc1c[nH]c2ccccc12)C(=O)N[C@H](CCCCN)C(=O)O)[C@H](C)O)[C@H](C)O)C(C)C)[C@H](C)O)[C@H](C)O [Tf‐D‐LP4]
decrease in peptide‐induced cell death in anti‐TfR antibody‐treated cells (U‐87MG): about twofold
increase in HK in the cytosolic fraction [1]: about twofold
decrease of cellular ATP levels (HeLa cells): about 40%
apoptotic cell death (acridine orange/ethidium bromide) (A549 cells): over 70%
inhibition of purified HK‐I activity (HK‐I): but not Tf-D-LP4 inhibits HK-I activity

HAIYPRHSWTWE-199-KKLETA VNLAWTAGNSN-216-KWTWK [Tf‐LP4]
cell death induction in noncancerous cells (PWR‐1E): almost no cell death induction
cell death induction in noncancerous cells (T‐Rex‐293; T‐Rex‐293, 6 h, PI/FACS (Fig. 2E)): almost no cell death induction

MAVPPTYADLGKSARDVFTKGYGFGLRQIKIWFQNRRMKWKK [N‐Ter‐Antp]
steady‐state level of cell death (PANC1): about 50%
steady‐state level of cell death (T‐Rex‐293; T‐Rex‐293 (Group 3, Fig. 1I), 6 h, about 10% in the absence of peptides): about 50%

B1: Antp‐LP4 (peptide)
peptide: RQIKIWFQNRRMKWKKSWTWEKKLETAVNLAWTAGNSNKWTWK
notes: amino acids added to form a loop‐shaped tryptophan zipper (N‐terminal arm); amino acids added to form a loop‐shaped tryptophan zipper (C‐terminal arm); 43 residues as printed; source: synthetic peptide (GL Biochem, > 85% purity)
Kd [2]: 7.1 µM
binding result [3]: binds
binding result [4]: binds

From article PMC6026870, “Selective induction of cancer cell death by VDAC1‐based peptides and their potential use in cancer therapy” (Molecular Oncology, 2018)
